The values below come from ChEMBL document CHEMBL1909046, “DrugMatrix in vitro pharmacology data”.

Assay [1] deals with Beta-2 adrenergic receptor (Homo sapiens, UniProt P07550). As to the kind of experiment: DRUGMATRIX: Adrenergic beta2 radioligand binding (ligand: [3H] CGP-12177). The note with it: cho; Not Active = under 50% inhibition at 10 µM. Format: cell membranes, Membrane.
In assay [2] the target is 5-hydroxytryptamine receptor 6 (Homo sapiens, UniProt P50406). Format: cell membranes, HeLa, Membrane. Also: in other assays of this panel Not Active means under 50% inhibition at 10 µM.
The next assay has as its target Vasopressin V1a receptor (Homo sapiens, UniProt P37288). Format: cell membranes, Membrane. To be noted: hek293. Also: in other assays of this panel Not Active means under 50% inhibition at 10 µM.
The target of assay [3] is Prostaglandin G/H synthase 1 (Homo sapiens, UniProt P23219). The experiment in a line: biochemical. The assay is classed as tissue-based, Platelet. To be noted: platelet.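 Also: inhibition of COX-1 enzyme activity, with arachidonic acid supplied as substrate; in other assays of this panel Not Active means under 50% inhibition at 10 µM.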
Assay [4] is described as follows: DRUGMATRIX: GABAA, Flunitrazepam, Central radioligand binding (ligand: [3H] Flunitrazepam). To be noted: Not Active = under 50% inhibition at 10 µM. The assay is classed as cell membranes, Rattus norvegicus, Wistar, Brain, Membrane.
The nature of assay [5]: DRUGMATRIX: GABAA, Chloride Channel, TBOB radioligand binding (ligand: [3H] TBOB). The assay is classed as cell membranes, Rattus norvegicus, Wistar, Cerebral cortex, Membrane. The note with it: Not Active = under 50% inhibition at 10 µM.
Assay [6] in a line: DRUGMATRIX: Interleukin IL-1 radioligand binding (ligand: [125I] interleukin 1beta). To be noted: nih3t3; Not Active = under 50% inhibition at 10 µM. Format: cell membranes, Membrane.
Assay [7] has as its target T1, Angiotensin-converting enzyme (Oryctolagus cuniculus, UniProt P12822).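 Also: enzymatic inhibition of angiotensin-converting enzyme measured with FAPGG as the substrate; in other assays of this panel Not Active means under 50% inhibition at 10 µM.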
T1 sequence (P12822 whole entry): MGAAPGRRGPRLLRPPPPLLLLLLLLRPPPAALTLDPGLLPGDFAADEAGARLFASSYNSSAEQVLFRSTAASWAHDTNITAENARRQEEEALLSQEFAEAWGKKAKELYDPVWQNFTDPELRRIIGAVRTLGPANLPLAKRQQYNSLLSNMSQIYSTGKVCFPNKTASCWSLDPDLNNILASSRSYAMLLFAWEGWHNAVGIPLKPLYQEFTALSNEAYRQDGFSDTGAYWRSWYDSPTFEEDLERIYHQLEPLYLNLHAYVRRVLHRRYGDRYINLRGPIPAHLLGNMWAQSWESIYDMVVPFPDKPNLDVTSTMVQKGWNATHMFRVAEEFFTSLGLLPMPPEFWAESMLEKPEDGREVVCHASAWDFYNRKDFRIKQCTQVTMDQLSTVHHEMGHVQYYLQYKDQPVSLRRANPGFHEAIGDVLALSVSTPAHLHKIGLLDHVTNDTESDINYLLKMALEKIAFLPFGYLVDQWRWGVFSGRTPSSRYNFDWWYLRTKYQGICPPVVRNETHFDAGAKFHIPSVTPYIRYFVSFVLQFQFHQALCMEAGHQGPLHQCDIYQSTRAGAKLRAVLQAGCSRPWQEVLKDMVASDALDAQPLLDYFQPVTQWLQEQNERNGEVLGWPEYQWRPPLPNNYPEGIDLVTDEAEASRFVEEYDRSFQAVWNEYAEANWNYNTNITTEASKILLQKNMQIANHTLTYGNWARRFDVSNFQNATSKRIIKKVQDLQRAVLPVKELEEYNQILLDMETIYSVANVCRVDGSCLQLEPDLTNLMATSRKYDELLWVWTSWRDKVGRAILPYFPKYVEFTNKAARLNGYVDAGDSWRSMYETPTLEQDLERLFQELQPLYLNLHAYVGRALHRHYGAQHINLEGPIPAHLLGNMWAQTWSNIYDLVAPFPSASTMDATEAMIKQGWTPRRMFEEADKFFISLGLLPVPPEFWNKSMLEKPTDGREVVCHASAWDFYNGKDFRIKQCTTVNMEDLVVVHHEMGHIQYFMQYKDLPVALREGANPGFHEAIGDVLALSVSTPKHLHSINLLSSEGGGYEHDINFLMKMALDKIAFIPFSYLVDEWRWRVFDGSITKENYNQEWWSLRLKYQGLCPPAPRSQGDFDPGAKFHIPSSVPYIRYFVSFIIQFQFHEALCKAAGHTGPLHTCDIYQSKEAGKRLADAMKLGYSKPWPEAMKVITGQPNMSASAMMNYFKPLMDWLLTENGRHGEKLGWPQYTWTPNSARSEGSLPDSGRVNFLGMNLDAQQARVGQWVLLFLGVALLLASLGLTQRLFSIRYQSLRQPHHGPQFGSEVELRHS
The assay is classed as tissue-based, Lung.

In general, IC50 refers to the concentration needed to halve the response being measured. A word on the Ki: it is the equilibrium dissociation constant of an inhibitor or competing ligand from its target.

Chain of Vasopressin V1a receptor (P37288 whole entry): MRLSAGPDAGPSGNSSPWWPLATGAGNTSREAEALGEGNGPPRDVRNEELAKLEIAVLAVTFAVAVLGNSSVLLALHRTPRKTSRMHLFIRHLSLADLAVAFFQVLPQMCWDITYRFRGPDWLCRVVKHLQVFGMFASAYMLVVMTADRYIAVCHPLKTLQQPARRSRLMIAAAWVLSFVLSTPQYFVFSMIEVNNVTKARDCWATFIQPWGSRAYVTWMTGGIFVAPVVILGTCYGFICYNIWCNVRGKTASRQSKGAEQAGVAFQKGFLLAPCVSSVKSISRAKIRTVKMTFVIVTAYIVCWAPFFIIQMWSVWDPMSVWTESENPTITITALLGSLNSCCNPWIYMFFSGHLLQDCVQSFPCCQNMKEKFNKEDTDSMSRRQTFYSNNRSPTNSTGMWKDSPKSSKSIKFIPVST
Chain of 5-hydroxytryptamine receptor 6 (P50406 whole entry): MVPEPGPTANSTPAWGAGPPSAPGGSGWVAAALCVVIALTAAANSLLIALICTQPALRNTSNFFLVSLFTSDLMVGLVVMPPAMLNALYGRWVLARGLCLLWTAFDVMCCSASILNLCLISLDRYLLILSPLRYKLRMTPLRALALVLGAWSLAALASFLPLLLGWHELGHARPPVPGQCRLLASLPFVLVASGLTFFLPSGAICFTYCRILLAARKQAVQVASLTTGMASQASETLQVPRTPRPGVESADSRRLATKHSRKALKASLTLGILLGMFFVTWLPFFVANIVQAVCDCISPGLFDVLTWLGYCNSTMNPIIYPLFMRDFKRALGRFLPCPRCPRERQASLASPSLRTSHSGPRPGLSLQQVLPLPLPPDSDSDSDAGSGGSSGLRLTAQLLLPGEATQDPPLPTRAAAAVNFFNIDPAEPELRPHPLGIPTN
Chain of Prostaglandin G/H synthase 1 (P23219 whole entry): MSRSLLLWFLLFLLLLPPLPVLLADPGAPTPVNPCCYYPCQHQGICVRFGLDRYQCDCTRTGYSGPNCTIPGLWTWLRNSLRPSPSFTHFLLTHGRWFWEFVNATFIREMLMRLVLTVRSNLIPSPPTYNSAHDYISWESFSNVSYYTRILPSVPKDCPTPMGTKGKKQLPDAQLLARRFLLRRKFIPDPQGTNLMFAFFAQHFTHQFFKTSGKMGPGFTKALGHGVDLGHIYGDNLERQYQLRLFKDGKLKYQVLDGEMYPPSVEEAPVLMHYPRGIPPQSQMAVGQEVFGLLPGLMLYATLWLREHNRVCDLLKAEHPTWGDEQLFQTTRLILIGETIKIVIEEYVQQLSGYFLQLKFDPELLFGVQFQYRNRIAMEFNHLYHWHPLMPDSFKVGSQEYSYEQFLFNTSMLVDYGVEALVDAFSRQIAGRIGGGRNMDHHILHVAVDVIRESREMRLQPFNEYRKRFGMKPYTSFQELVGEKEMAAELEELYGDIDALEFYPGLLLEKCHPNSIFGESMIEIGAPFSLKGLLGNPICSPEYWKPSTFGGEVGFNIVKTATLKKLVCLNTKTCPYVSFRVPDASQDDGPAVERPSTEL

For `C[C@]12CCC(=O)C=C1CC[C@@H]1[C@@H]2CC[C@@]2(C)[C@H]1CC[C@]2(C)O` [METHYLTESTOSTERONE], the IC50 result (in assay [1]; in assay [2] (hela); against Vasopressin V1a receptor; in assay [3]; in assay [4]; in assay [5]) was “Not Active” in each case. In addition, the 50% inhibitory concentration (IC50) entry in assay [6] and in assay [7] was “Not Active” each time. For the same compound, the Ki entry in assay [4], in assay [5] and in assay [6] was “Not Active” in each case.

For the compound `Nc1nc2c(ncn2COCCO)c(=O)[nH]1` [ACYCLOVIR], the concentration for half-maximal inhibition (IC50) entry (in assay [1]; in assay [2] (hela); on Vasopressin V1a receptor; in assay [3]; in assay [4]; in assay [5]) was “Not Active” throughout. Besides, the IC50 entry in assay [6] and in assay [7] was “Not Active” in each case. In addition, the inhibitory constant (Ki) result in assay [4], in assay [5] and in assay [6] was “Not Active” in each case.

Regarding `CC(C)CN(C[C@@H](O)[C@H](Cc1ccccc1)NC(=O)O[C@H]1CCOC1)S(=O)(=O)c1ccc(N)cc1`, the concentration for half-maximal inhibition (IC50) entry (in assay [1]; in assay [2] (hela); against Vasopressin V1a receptor; in assay [3]; in assay [4]; in assay [5]) was “Not Active” each time. Besides, the half-maximal inhibitory concentration (IC50) result in assay [6] and in assay [7] was “Not Active” each time. Besides, the Ki entry in assay [4], in assay [5] and in assay [6] was “Not Active” throughout.

As for `CN(C)CCCN1c2ccccc2Sc2ccccc21` [PROMAZINE], the IC50 entry was “Not Active” in assay [1]; 274 nM in assay [2] (read-out: IC50); “Not Active” on Vasopressin V1a receptor; “Not Active” in assay [3]; “Not Active” in assay [4]; “Not Active” in assay [5]. Also, the IC50 result in assay [6] and in assay [7] was “Not Active” throughout. For the same compound, the inhibitory constant (Ki) was 127 nM in assay [2] (read-out: Ki), “Not Active” in assay [4], “Not Active” in assay [5] and “Not Active” in assay [6].

For `Cc1c(C)c2c(c(C)c1O)CC[C@@](C)(CCC[C@H](C)CCC[C@H](C)CCCC(C)C)O2` [ALPHA-TOCOPHEROL], the half-inhibitory concentration (IC50) entry (in assay [1]; in assay [2] (hela); against Vasopressin V1a receptor; in assay [3]; in assay [4]; in assay [5]) was “Not Active” in each case. Also, the IC50 result in assay [6] and in assay [7] was “Not Active” in each case. The inhibition constant Ki result in assay [4], in assay [5] and in assay [6] was “Not Active” throughout.

Regarding `Cc1ccc(/N=C/N(C)/C=N/c2ccc(C)cc2C)c(C)c1` [AMITRAZ], the half-maximal inhibitory concentration (IC50) result (in assay [1]; in assay [2] (hela); against Vasopressin V1a receptor; in assay [3]; in assay [4]; in assay [5]) was “Not Active” throughout. The IC50 entry in assay [6] and in assay [7] was “Not Active” in each case. In addition, the Ki result in assay [4], in assay [5] and in assay [6] was “Not Active” each time.

As to `CN(C)c1nc(N(C)C)nc(N(C)C)n1` [ALTRETAMINE], the IC50 result (in assay [1]; in assay [2] (hela); at Vasopressin V1a receptor; in assay [3]; in assay [4]; in assay [5]) was “Not Active” each time. Also, the half-inhibitory concentration (IC50) result in assay [6] and in assay [7] was “Not Active” each time. Besides, the Ki result in assay [4], in assay [5] and in assay [6] was “Not Active” in each case.

As for CADMIUM ACETATE, the IC50 entry (in assay [1]; in assay [2] (hela); against Vasopressin V1a receptor; in assay [3]; in assay [4]; in assay [5]) was “Not Active” in each case. For the same compound, the IC50 result in assay [6] and in assay [7] was “Not Active” in each case. For the same compound, the Ki result (in assay [1]; in assay [2] (hela); at Vasopressin V1a receptor; in assay [3]; in assay [4]; in assay [5]) was “Not Active” in each case. Besides, the inhibition constant (Ki) entry in assay [6] and in assay [7] was “Not Active” in each case.

Take `COc1cc2c3cc1Oc1cc(ccc1O)C[C@@H]1c4c(cc(OC)c(O)c4Oc4ccc(cc4)C[C@@H]3N(C)CC2)CC[N+]1(C)C.[Cl-]`: the IC50 entry (in assay [1]; in assay [2] (hela); on Vasopressin V1a receptor; in assay [3]; in assay [4]; in assay [5]) was “Not Active” each time. Moreover, the 50% inhibitory concentration (IC50) entry in assay [6] and in assay [7] was “Not Active” each time. The inhibition constant (Ki) entry in assay [4], in assay [5] and in assay [6] was “Not Active” each time.

Consider `CN(Cc1ccc(C(C)(C)C)cc1)Cc1cccc2ccccc12` [BUTENAFINE], for which the concentration for half-maximal inhibition (IC50) result (in assay [1]; in assay [2] (hela); against Vasopressin V1a receptor; in assay [3]; in assay [4]; in assay [5]) was “Not Active” each time. Besides, the IC50 result in assay [6] and in assay [7] was “Not Active” each time. For the same compound, the Ki result in assay [4], in assay [5] and in assay [6] was “Not Active” each time.

Turning to `C[C@H](CCC(=O)O)[C@H]1CC[C@H]2[C@@H]3[C@H](O)C[C@@H]4C[C@H](O)CC[C@]4(C)[C@H]3C[C@H](O)[C@]12C` [CHOLIC ACID], the half-inhibitory concentration (IC50) result (in assay [1]; in assay [2] (hela); against Vasopressin V1a receptor; in assay [3]; in assay [4]; in assay [5]) was “Not Active” in each case. In addition, the IC50 entry in assay [6] and in assay [7] was “Not Active” each time. The inhibition constant (Ki) entry in assay [4], in assay [5] and in assay [6] was “Not Active” each time.

Regarding `CC1=C2C(=CO[C@H](C)[C@H]2C)C(O)=C(C(=O)O)C1=O` [CITRININ], the IC50 entry (in assay [1]; in assay [2] (hela); on Vasopressin V1a receptor; in assay [3]; in assay [4]; in assay [5]) was “Not Active” throughout. Also, the IC50 entry in assay [6] and in assay [7] was “Not Active” in each case. Also, the inhibition constant Ki result in assay [4], in assay [5] and in assay [6] was “Not Active” each time.

As to `O=C(CCCN1CC=C(n2c(=O)[nH]c3ccccc32)CC1)c1ccc(F)cc1` [DROPERIDOL], the half-maximal inhibitory concentration (IC50) result (in assay [1]; in assay [2] (hela); at Vasopressin V1a receptor; in assay [3]; in assay [4]; in assay [5]) was “Not Active” in each case. Besides, the IC50 entry in assay [6] and in assay [7] was “Not Active” each time. The Ki result in assay [4], in assay [5] and in assay [6] was “Not Active” throughout.

As to `CCCCc1nc(Cl)c(CO)n1Cc1ccc(-c2ccccc2-c2nnn[nH]2)cc1` [LOSARTAN], the IC50 entry (in assay [1]; in assay [2] (hela); against Vasopressin V1a receptor; in assay [3]; in assay [4]; in assay [5]) was “Not Active” in each case. For the same compound, the IC50 result in assay [6] and in assay [7] was “Not Active” in each case. Besides, the inhibition constant (Ki) entry in assay [4], in assay [5] and in assay [6] was “Not Active” each time.
